According to patent US9452170B2, “Compounds and methods for inducing chondrogenesis” (The California Institute for Biomedical Research, priority 2013, dated 2016):

Experiments:
Human MSCs = test: Human chondrocyte differentiation assay (immunostaining for type II collagen, Sox9 and COMP); assay type: cell-based; settings: 168 h, compound 1 μM, 7 days, vs DMSO vehicle, read-out: Biological Activity (increase in staining intensity compared to vehicle control)
Protocol: Human MSCs (50,000) were plated into each well of a 96-well plate and cultured overnight. Compounds (in DMSO solution) were added to the cells at a final concentration of 1 μM, and the cells were cultured for 7 days at 5% CO2, 37° C. The cells were fixed with 10% formalin solution at room temperature for 10 min, and immunostained using antibodies specific for type II collagen (Abcam), Sox9 (Santa Cruz) and cartilage oligomeric matrix protein (COMP, Santa Cruz), and fluorescently labeled secondary antibodies (Li-Cor). The total intensity of the staining was measured using Oddyssey CLx imaging system (Li-Cor). Vehicle (DMSO) was used as control to determine the basal level of chondrocyte differentiation. […] Representative data are shown in Table 1 [A: >50% increase in staining intensity compared to vehicle control; B: 30-50% increase in staining intensity compared to vehicle control].

[1] = Quantitation of compounds in rat knee joint extract after intra-articular injection (LC-MS/MS); assay type: in vivo; settings: knee joint extract (whole joint, acetonitrile extract), other: intra-articular injection, 30 μL of 100 μM solution, 30 μL of 100 μM intra-articular, read-out: Concentration observed in extract; for concentration at 0 h: T = 0 h; for concentration at 0.5 h: T = 0.5 h; for concentration at 1 h: T = 1 h; for concentration at 2 h: T = 2 h
Protocol: LC-MS/MS analysis for Chondrogenesis compounds were performed using an API 3000 equipped with an Agilent 1100 HPLC and a Leap Technologies autosampler. A HPLC Phenomenex 5 micron, 100 A Luna C18 (2) analytical column with dimensions of 2.0×50 mm (Part No. 00B-4252-B0) at a temperature of 30 C, flow rate of 0.6 mL/min, injection volume of 10 uL, and a 6.0 min run time was used. Mobile phase A1 was 0.1% formic acid in water and Mobile phase B1 was 0.1% formic acid in acetonitrile. The gradient was 90% A1/10% B1 at time 0; 90% A1/10% B1 at time 1.0 min; 10% A1/90% B1 at time 2.0 min; 10% A1/90% B1 at time 4.0 min; 90% A1/10% B1 at time 4.10 min; 90% A1/10% B1 at time 6.0 min. Analytes and internal standard quantitation were performed using Multiple Reaction Monitoring (MRM) quantitation method. Listed below are specific methods used to dose and measure exposure in plasma and the observed concentration in joint extract.
Calibration standard curve was prepared by serial dilution of a concentrated, spike solution of the compound in internal standard diluents. Internal standard diluent was prepared by dissolving the internal standard compound at a certain concentration in acetonitrile. Rat knee joint samples for each time points were individually crushed and transferred into each centrifuge tube and added 1.0-mL of internal standard diluent. Each centrifuge tube was vortexed and centrifuged for 30 minutes. From each tube, supernatant was removed and injected onto the column for analysis. In addition, plasma samples were obtained by retro-orbital bleeds into heparin coated tubes and stored at −80 C and later processed by analogy to the protocol described above for rat plasma samples.
30 μL of 100 μM compound solution (PBS with 0.1% DMSO) was injected into the intra-articular space of the right hinder knee of each animal. The animals were euthanized at indicated time points (0 hr, 0.5 hr, 1 hr, 2 hr, 4 hr and 6 hr). Four animals were used for each timepoint. The injected knee joints were harvested, flash freeze in liquid nitrogen. The whole joints were grounded into powder while frozen, mixed with 1 mL internal standard-containing acetonitrile, incubated at 4° C. overnight, vortexed and centrifuged for 30 min. The supernatant from each sample was analyzed using LC-MS/MS. Data shown in Table 2 indicates the observed concentration in knee extract. ND=Not determined.

SMILES	activation at 1 µM (Human MSCs)	other results
COCCc1ccc(NC(=O)c2ccccc2C(=O)O)cc1 [Compound 21]	> 50%	concentration at 0 h [1]: 434 ng/mL; concentration at 0.5 h [1]: 9.1 ng/mL; concentration at 1 h [1]: 4.9 ng/mL; concentration at 2 h [1]: 0 ng/mL
CNS(=O)(=O)c1ccc(N2Cc3ccccc3C2=O)cc1 [Compound 27]	> 50%	concentration at 0 h [1]: 592 ng/mL; concentration at 0.5 h [1]: 35.4 ng/mL; concentration at 1 h [1]: 6.3 ng/mL; concentration at 2 h [1]: 2.5 ng/mL
N#Cc1ccc(C(=O)Nc2ccccc2S(=O)(=O)N2CCOCC2)cc1 [Compound 62]	> 50%	concentration at 0 h [1]: 411 ng/mL; concentration at 0.5 h [1]: 109 ng/mL; concentration at 1 h [1]: 52.6 ng/mL; concentration at 2 h [1]: 15.7 ng/mL
CN(Cc1cccc(NC(=O)c2ccccc2C(=O)O)c1)S(C)(=O)=O [Compound 73]	> 50%	concentration at 0 h [1]: 587 ng/mL; concentration at 0.5 h [1]: 28.5 ng/mL; concentration at 1 h [1]: 9.41 ng/mL; concentration at 2 h [1]: 2.6 ng/mL
O=C(Nc1ccccc1S(=O)(=O)N1CCOCC1)c1cccc(F)c1 [Compound 110]	30 to 50%	–
CS(=O)(=O)c1ccc(C(=O)Nc2ccccc2S(=O)(=O)N2CCOCC2)cc1 [Compound 113]	> 50%	concentration at 0 h [1]: 566 ng/mL; concentration at 0.5 h [1]: 25.3 ng/mL; concentration at 1 h [1]: 4.2 ng/mL; concentration at 2 h [1]: 0 ng/mL
COCCc1ccc(NC(=O)c2ccccc2NS(C)(=O)=O)cc1 [Compound 117]	> 50%	concentration at 0 h [1]: 926 ng/mL; concentration at 0.5 h [1]: 50.6 ng/mL; concentration at 1 h [1]: 4.4 ng/mL; concentration at 2 h [1]: 0 ng/mL
O=C(Nc1ccccc1S(=O)(=O)N1CCOCC1)c1ccccc1F [Compound 118]	30 to 50%	–
CS(=O)(=O)Nc1ccccc1C(=O)NCc1ccc(C(=O)O)cc1 [Compound 120]	30 to 50%	–
CC(=O)c1cccc(C(=O)Nc2ccccc2S(=O)(=O)N2CCOCC2)c1 [Compound 122]	> 50%	–
O=C(Nc1ccccc1S(=O)(=O)N1CCOCC1)c1ccc(F)cc1 [Compound 123]	> 50%	concentration at 0 h [1]: 4430 ng/mL; concentration at 0.5 h [1]: 1100 ng/mL; concentration at 1 h [1]: 741 ng/mL; concentration at 2 h [1]: 338 ng/mL; concentration at 4 h ([1]; T = 4 h): 38 ng/mL; concentration at 6 h ([1]; T = 6 h): 0 ng/mL
CN(CCO)S(=O)(=O)c1ccccc1NC(=O)c1ccc(F)cc1 [Compound 125]	30 to 50%	–
CC1COCCN1S(=O)(=O)c1ccccc1NC(=O)c1ccc(F)cc1 (stereo not shown) [Compound 128]	> 50%	concentration at 0 h [1]: 7280 ng/mL; concentration at 0.5 h [1]: 2940 ng/mL; concentration at 1 h [1]: 1360 ng/mL; concentration at 2 h [1]: 546 ng/mL
O=C(Nc1ccccc1S(=O)(=O)N1CCOCC1)c1ccc(-c2ccccc2)cc1 [Compound 133]	30 to 50%	–
O=C(Nc1ccccc1S(=O)(=O)N1CCS(=O)(=O)CC1)c1ccc(F)cc1 [Compound 141]	30 to 50%	–
CC(=O)Nc1ccc(NC(=O)c2ccccc2C(=O)O)cc1 [Compound 142]	30 to 50%	–
CC(=O)CCc1cccc(NC(=O)c2ccccc2C(=O)O)c1 [Compound 145]	30 to 50%	–
O=C(O)c1ccc(C(=O)Nc2ccccc2S(=O)(=O)N2CCOCC2)cc1 [Compound 147]	30 to 50%	–
O=C(O)c1ccccc1C(=O)Nc1ccc(CCCO)cc1OC(F)(F)F [Compound 148]	30 to 50%	–
COc1cc(CNC(=O)c2ccccc2C(=O)O)ccc1C(=O)O [Compound 154]	30 to 50%	–
N#Cc1cc(CNC(=O)c2ccccc2C(=O)O)ccc1C(=O)O [Compound 155]	> 50%	–
COCCc1ccc(NC(=O)c2ccccc2NS(=O)(=O)c2ccccc2)cc1 [Compound 156]	> 50%	concentration at 0 h [1]: 109 ng/mL; concentration at 0.5 h [1]: 3.5 ng/mL; concentration at 1 h [1]: 0 ng/mL; concentration at 2 h [1]: 0 ng/mL
CCCS(=O)(=O)Nc1ccccc1C(=O)Nc1ccc(CCOC)cc1 [Compound 159]	30 to 50%	–
COCCc1ccc(NC(=O)c2ccccc2NS(=O)(=O)C(C)C)cc1 [Compound 162]	30 to 50%	–
O=C(O)Cc1ccc(CNC(=O)c2ccccc2C(=O)O)cc1 [Compound 164]	> 50%	–
CC(=O)Cc1ccc(CNC(=O)c2ccccc2C(=O)O)cc1 [Compound 166]	30 to 50%	–
NC(=O)c1ccc(CNC(=O)c2ccccc2C(=O)O)cc1 [Compound 172]	30 to 50%	–

SMILES	activation at 1 µM (Human MSCs)	other results
O=C(O)c1cc(CCCO)ccc1NC(=O)c1ccccc1C(=O)O [Compound 176]	30 to 50%	–
COc1cc(NC(=O)c2ccccc2C(=O)O)ccc1CCCO [Compound 178]	30 to 50%	–
O=C(O)c1cc(F)ccc1C(=O)Nc1ccc(CCCO)cc1 [Compound 180]	30 to 50%	–
O=C(Nc1ccc(CCCO)cc1)c1cccc(F)c1C(=O)O [Compound 181]	30 to 50%	–
O=C(O)c1cccc(F)c1C(=O)Nc1ccc(CCCO)cc1 [Compound 182]	30 to 50%	–
O=C(O)c1ccc(F)cc1C(=O)Nc1ccc(CCCO)cc1 [Compound 183]	30 to 50%	–
O=C(O)c1cc(Cl)ccc1C(=O)Nc1ccc(CCCO)cc1 [Compound 184]	30 to 50%	–
O=C(Nc1ccc(CCCO)cc1)c1cccc(Cl)c1C(=O)O [Compound 185]	30 to 50%	–
O=C(O)c1cccc(Cl)c1C(=O)Nc1ccc(CCCO)cc1 [Compound 186]	30 to 50%	–
O=C(O)c1ccc(Cl)cc1C(=O)Nc1ccc(CCCO)cc1 [Compound 187]	30 to 50%	–
Cc1cccc(C(=O)Nc2ccc(CCCO)cc2)c1C(=O)O [Compound 189]	> 50%	–
Cc1cccc(C(=O)O)c1C(=O)Nc1ccc(CCCO)cc1 [Compound 190]	> 50%	–
COC(=O)c1ccccc1NC(=O)Nc1cccc(C(C)=O)c1 [Compound 193]	30 to 50%	–
COC(=O)c1ccccc1NC(=O)Nc1ccccc1C(F)(F)F [Compound 194]	30 to 50%	–
COC(=O)c1ccccc1NC(=O)Nc1cccc(C(F)(F)F)c1 [Compound 195]	30 to 50%	–
O=C(Nc1cccc(C(F)(F)F)c1)Nc1ccccc1C(=O)O [Compound 196]	30 to 50%	–
COC(=O)c1ccccc1NC(=O)Nc1ccccc1C [Compound 197]	30 to 50%	–
COC(=O)c1ccccc1NC(=O)Nc1ccc(C)cc1 [Compound 198]	30 to 50%	–
Cc1ccccc1NC(=O)Nc1ccccc1C(=O)O [Compound 199]	30 to 50%	–
COC(=O)c1ccccc1NC(=O)Nc1ccccc1 [Compound 200]	30 to 50%	–
COC(=O)c1ccccc1NC(=O)Nc1ccc2ccccc2c1 [Compound 201]	30 to 50%	–
COC(=O)c1ccccc1NC(=O)Nc1cccc(C#N)c1 [Compound 202]	> 50%	–
O=C(Nc1ccccc1)Nc1ccccc1C(=O)O [Compound 203]	30 to 50%	–
CC(=O)c1cccc(NC(=O)Nc2ccccc2C(=O)O)c1 [Compound 204]	30 to 50%	–
CC(=O)c1ccccc1NC(=O)Nc1ccccc1C(=O)O [Compound 205]	30 to 50%	–
COC(=O)c1ccccc1NC(=O)Nc1ccc(C(C)=O)cc1 [Compound 206]	30 to 50%	–
